This assay has as its target T1, sGC α1/β1 heterodimer (Homo sapiens, UniProt Q02108+Q02153).
T1 construct: expressed in transfected cells
T1 sequence (Q02108 1-690): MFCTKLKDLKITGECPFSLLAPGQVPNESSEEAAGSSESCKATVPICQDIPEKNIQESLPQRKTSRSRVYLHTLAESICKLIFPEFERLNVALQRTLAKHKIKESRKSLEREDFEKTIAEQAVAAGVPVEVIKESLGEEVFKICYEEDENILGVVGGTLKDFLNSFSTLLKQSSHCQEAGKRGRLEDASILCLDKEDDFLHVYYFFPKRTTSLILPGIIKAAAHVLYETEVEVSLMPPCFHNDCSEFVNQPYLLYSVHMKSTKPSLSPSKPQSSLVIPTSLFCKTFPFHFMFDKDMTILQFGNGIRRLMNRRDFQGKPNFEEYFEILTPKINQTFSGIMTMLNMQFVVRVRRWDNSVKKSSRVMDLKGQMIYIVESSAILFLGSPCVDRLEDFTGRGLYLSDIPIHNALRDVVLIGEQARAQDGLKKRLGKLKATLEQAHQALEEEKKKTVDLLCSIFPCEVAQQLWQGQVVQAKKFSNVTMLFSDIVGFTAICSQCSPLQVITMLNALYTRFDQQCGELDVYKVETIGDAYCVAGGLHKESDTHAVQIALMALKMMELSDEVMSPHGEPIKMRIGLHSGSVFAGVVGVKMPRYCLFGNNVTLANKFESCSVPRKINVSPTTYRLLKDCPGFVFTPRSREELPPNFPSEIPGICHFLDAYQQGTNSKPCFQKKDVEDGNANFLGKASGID
T1 sequence (Q02153 1-619): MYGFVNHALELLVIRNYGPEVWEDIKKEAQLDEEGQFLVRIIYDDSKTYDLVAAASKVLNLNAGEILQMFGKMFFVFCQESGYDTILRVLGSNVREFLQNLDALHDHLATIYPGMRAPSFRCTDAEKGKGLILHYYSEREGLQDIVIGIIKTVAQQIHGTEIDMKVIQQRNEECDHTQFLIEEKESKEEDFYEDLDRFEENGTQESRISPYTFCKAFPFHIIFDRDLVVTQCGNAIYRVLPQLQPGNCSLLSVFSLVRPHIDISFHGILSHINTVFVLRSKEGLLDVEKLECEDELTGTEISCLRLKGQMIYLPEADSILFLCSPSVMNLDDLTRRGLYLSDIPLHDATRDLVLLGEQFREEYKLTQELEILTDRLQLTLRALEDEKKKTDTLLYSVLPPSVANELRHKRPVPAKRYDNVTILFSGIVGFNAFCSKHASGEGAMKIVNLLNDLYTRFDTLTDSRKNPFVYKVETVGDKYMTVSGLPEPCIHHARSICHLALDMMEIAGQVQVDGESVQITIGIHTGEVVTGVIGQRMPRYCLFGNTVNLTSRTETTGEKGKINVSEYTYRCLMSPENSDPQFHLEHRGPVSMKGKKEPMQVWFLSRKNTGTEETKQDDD
Kind of assay: Cell-Based sGC Functional Assay (CASA Assay), cGMP generation in CHO-K1/sGC cells. The conditions noted are these: maximum cGMP production of Compound A set to 100% activation, read-out: % Act. (percent activation relative to Compound A). The source says:
sGC is a heme-containing enzyme that converts GTP to secondary messenger cGMP. Increases in cGMP levels affect several physiological processes including vasorelaxation through multiple downstream pathways. […] Heme-dependent activators (HDAs) preferentially activate sGC containing a ferrous heme group. To determine the effect of sGC activators on enzyme activity, the CASA assay was developed to monitor the generation of cGMP in a cell line that stably expresses the heterodimeric sGC protein.
A CHO-K1 cell line stably expressing the sGC α1/β1 heterodimer was generated using a standard transfection protocol. CHO-K1 cells were transfected with plasmids pIREShyghsGCα1 and pIRESneo-hsGCβ1 simultaneously using FUGENE reagent. Clones that stably express both subunits were selected with hygromycin and neomycin for ˜2 weeks. Clone #7 was chosen for the assay and was designated CHO-K1/sGC. CHO-K1/sGC cells were maintained in F-K12 medium containing 10% heat-inactivated Fetal Bovine Serum (FBS), 100 μg/mL penicillin/streptomycin, 0.5 mg/mL hygromycin and 0.25 mg/mL G418. The cells were then cryopreserved in LN2. On the day of the assay, cells thawed and resuspended in EBSS Assay Buffer (Sigma, E3024) supplemented with 5 mM MgCl2, 10 mM HEPES (4-(2-hydroxyethyl)piperazine-1-ethanesulfonic acid) and 0.05% BSA (bovine serum albumin) (EAB) and cell density was then adjusted to 4×10^5/mL with EAB. IBMX (3-isobutyl-1-methylxanthin, 0.5 mM) was added to inhibit degradation of cGMP. Compounds were diluted from DMSO stock solutions and added to the assay at a final DMSO concentration of 2.5%. Cells were incubated with compounds in the presence and absence of 1 μM of Diethylenetriamine/nitric oxide adduct (DETA-NO; Sigma, 17018) for 1 hr at 37° C. At the end of the incubation period, the reaction was terminated and the cells were lysed with the detection reagents from Cisbio Kits. The level of intracellular cGMP was determined using an HTRF-based assay kit (CisBio, 62GM2PEC), which detects the displacement of a fluorescence labeled cGMP from its specific antibody. The cGMP produced by test compounds was directly compared to the maximum cGMP production (this value was set to equal 100% activation.) of the published sGC-HDA Compound A:
[drawing 298] (Example 1 in WO 2010/065275, published Jun. 10, 2010). The test compounds' activities were then expressed as a percentage of Compound A, the standard in every experiment. This percent activation was calculated either in the presence or absence of DETA-NO which was then plotted. IP and maximum fold induction was derived using ADA analysis software for 4P fit.

Each structure is given as a SMILES string.

In the case of `CC1(c2ccc(C#N)cn2)C(=O)Nc2nc(-c3cn4ncnc4c(CCCC(F)(F)F)n3)nc(N)c21` (stereo not drawn) [Example 48A, 6-(4-amino-5-methyl-6-oxo-2-(8-(4,4,4-trifluorobutyl)-[1,2,4]triazolo[1,5-a]pyrazin-6-yl)-6,7-dihydro-5H-pyrrolo[2,3-d]pyrimidin-5-yl)nicotinonitrile], the Emax is 85%.
As to `CC1(c2cnc(C(F)(F)F)cn2)C(=O)Nc2nc(-c3cn4ncnc4c(CCCC(F)(F)F)n3)nc(N)c21` (stereo not drawn) [Example 50B, 4-amino-5-methyl-2-(8-(4,4,4-trifluorobutyl)-[1,2,4]triazolo[1,5-a]pyrazin-6-yl)-5-(5-(trifluoromethyl)pyrazin-2-yl)-5H-pyrrolo[2,3-d]pyrimidin-6(7H)-one], the Emax is 191%.
As for `CCCc1nc(-c2nc(N)c3c(n2)NC(=O)[C@@]3(C)c2ccc(F)cc2)cn2ncnc12` [Example 52A, (S)-4-amino-5-(4-fluorophenyl)-5-methyl-2-(8-propyl-[1,2,4]triazolo[1,5-a]pyrazin-6-yl)-5,7-dihydro-6H-pyrrolo[2,3-d]pyrimidin-6-one], the Emax worked out at 96%.
With `CCCc1nc(-c2nc(N)c3c(n2)NC(=O)C3(C)c2ccc(Cl)cc2)cn2ncnc12` (stereo not drawn) [Example 53A, 4-amino-5-(4-chlorophenyl)-5-methyl-2-(8-propyl-[1,2,4]triazolo[1,5-a]pyrazin-6-yl)-5H-pyrrolo[2,3-d]pyrimidin-6(7H)-one], the Emax worked out at 122%.
Consider `CCCc1nc(-c2nc(N)c3c(n2)NC(=O)C3(C)c2ccc(F)cn2)cn2ncnc12` (stereo not drawn) [Example 54B, 4-amino-5-(5-fluoropyridin-2-yl)-5-methyl-2-(8-propyl-[1,2,4]triazolo[1,5-a]pyrazin-6-yl)-5H-pyrrolo[2,3-d]pyrimidin-6(7H)-one], for which the Emax is 210%.
As for `CCCc1nc(-c2nc(N)c3c(n2)NC(=O)C3(C)c2ccc(Cl)c(F)c2)cn2ncnc12` (stereo not drawn) [Example 55B], the Emax was 99%.
For the compound `CCCc1nc(-c2nc(N)c3c(n2)NC(=O)C3(c2ccc(Cl)cn2)C2CC2)cn2ncnc12` (stereo not drawn) [Example 57A, 4-amino-5-(5-chloropyridin-2-yl)-5-cyclopropyl-2-(8-propyl-[1,2,4]triazolo[1,5-a]pyrazin-6-yl)-5H-pyrrolo[2,3-d]pyrimidin-6(7H)-one], the Emax came out at 119%.
With `CCCc1nc(-c2nc(N)c3c(n2)NC(=O)C3(c2ccc(F)c(F)c2)C2CC2)cn2ncnc12` (stereo not drawn) [Example 58A, 4-amino-5-cyclopropyl-5-(3,4-difluorophenyl)-2-(8-propyl-[1,2,4]triazolo[1,5-a]pyrazin-6-yl)-5H-pyrrolo[2,3-d]pyrimidin-6(7H)-one], the Emax was 169%.
As for `CCCc1nc(-c2nc(N)c3c(n2)NC(=O)C3(c2ccc(F)cn2)C2CC2)cn2ncnc12` (stereo not drawn) [Example 59A, 4-amino-5-cyclopropyl-5-(5-fluoropyridin-2-yl)-2-(8-propyl-[1,2,4]triazolo[1,5-a]pyrazin-6-yl)-5H-pyrrolo[2,3-d]pyrimidin-6(7H)-one], the Emax came out at 119%.
Turning to `CCCCc1nc(-c2nc(N)c3c(n2)NC(=O)C3(C)c2ccc(Cl)c(F)c2)cn2ncnc12` (stereo not drawn) [Example 62B, 4-amino-2-(8-butyl-[1,2,4]triazolo[1,5-a]pyrazin-6-yl)-5-(4-chloro-3-fluorophenyl)-5-methyl-5H-pyrrolo[2,3-d]pyrimidin-6(7H)-one], the Emax is 267%.
Consider `CCCCc1nc(-c2nc(N)c3c(n2)NC(=O)C3(C)c2ccc(Cl)cc2)cn2ncnc12` (stereo not drawn) [Example 63A, 4-amino-2-(8-butyl-[1,2,4]triazolo[1,5-a]pyrazin-6-yl)-5-(4-chlorophenyl)-5-methyl-5H-pyrrolo[2,3-d]pyrimidin-6(7H)-one], for which the Emax stood at 187%.
As for `CCCCc1nc(-c2nc(N)c3c(n2)NC(=O)C3(C)c2ccc(F)c(F)c2)cn2ncnc12` (stereo not drawn) [Example 64B, 4-amino-2-(8-butyl-[1,2,4]triazolo[1,5-a]pyrazin-6-yl)-5-(3,4-difluorophenyl)-5-methyl-5H-pyrrolo[2,3-d]pyrimidin-6(7H)-one], the Emax worked out at 90%.
Consider `CCCCc1nc(-c2nc(N)c3c(n2)NC(=O)C3(c2ccc(F)cn2)C2CC2)cn2ncnc12` (stereo not drawn) [Example 66A, 4-amino-2-(8-butyl-[1,2,4]triazolo[1,5-a]pyrazin-6-yl)-5-cyclopropyl-5-(5-fluoropyridin-2-yl)-5H-pyrrolo[2,3-d]pyrimidin-6(7H)-one], for which the Emax is 162%.
Regarding `CCCCc1nc(-c2nc(N)c3c(n2)NC(=O)C3(c2ccc(Cl)cn2)C2CC2)cn2ncnc12` (stereo not drawn) [Example 68A, 4-amino-2-(8-butyl-[1,2,4]triazolo[1,5-a]pyrazin-6-yl)-5-(5-chloropyridin-2-yl)-5-cyclopropyl-5H-pyrrolo[2,3-d]pyrimidin-6(7H)-one], the Emax is 113%.
As for `CCCCc1nc(-c2nc(N)c3c(n2)NC(=O)C3(C)c2ccc(Cl)cn2)cn2ncnc12` (stereo not drawn) [Example 69A, 4-amino-2-(8-butyl-[1,2,4]triazolo[1,5-a]pyrazin-6-yl)-5-(5-chloropyridin-2-yl)-5-methyl-5H-pyrrolo[2,3-d]pyrimidin-6(7H)-one], the Emax stood at 158%.
As to `CCCCc1nc(-c2nc(N)c3c(n2)NC(=O)C3(c2ccc(C(F)(F)F)cn2)C2CC2)cn2ncnc12` (stereo not drawn) [Example 70A, 4-amino-2-(8-butyl-[1,2,4]triazolo[1,5-a]pyrazin-6-yl)-5-cyclopropyl-5-(5-(trifluoromethyl)pyridin-2-yl)-5H-pyrrolo[2,3-d]pyrimidin-6(7H)-one], the Emax worked out at 133%.
Regarding `CCCCc1nc(-c2nc(N)c3c(n2)NC(=O)C3(C)c2ccc(C)cn2)cn2ncnc12` (stereo not drawn) [Example 71B, 4-amino-2-(8-butyl-[1,2,4]triazolo[1,5-a]pyrazin-6-yl)-5-methyl-5-(5-methylpyridin-2-yl)-5H-pyrrolo[2,3-d)pyrimidin-6(7H)-one], the Emax worked out at 118%.
As for `CC1(c2ccc(Cl)c(F)c2)C(=O)Nc2nc(-c3cn4ncnc4c(CCC(F)(F)F)n3)nc(N)c21` (stereo not drawn) [Example 75B, 4-amino-5-(4-chloro-3-fluorophenyl)-5-methyl-2-(8-(3,3,3-trifluoropropyl)-[1,2,4]triazolo[1,5-a]pyrazin-6-yl)-5H-pyrrolo[2,3-d]pyrimidin-6(7H)-one], the Emax came to 136%.
